Like-named read-outs stand apart in the source and are kept apart here.
Columns and labels:
[1] = tested on: Carrageenin test in rats; test: anti-inflammatory activity, Carrageenin test in rats (Winter et al. 1962); format: in vivo, rat; details: read-out: Antiinflammatory activity
Text: (§1) The compounds show an outstanding analgesic activity, especially upon oral application versus the brewer's yeast test in rat as described by Winter et al. (J. Pharm. Exp. Ther., 150(1), 165-171, 1965). Also these compounds have shown anti-inflammatory activity especially upon oral application versus the Carrageenin test in rats as described by Winter et al. (Proc. Soc. Exp. Biol. Med., 111, 544-547, 1962). The results for the analgesic evaluation are expressed as ED50 and those for the anti-inflammatory evaluation expressed as the activity rate observed on administering the compounds at a dose of 5 mg/kg.

[2] = tested on: brewer's yeast test in rat; test: analgesic activity, brewer's yeast test in rat (Winter et al. 1965); format: in vivo; details: read-out: Analgesic activity ED50
Text: as §1

[3] = acute oral toxicity LD50 in mice (Reed-Muench method modified by Pizzi); details: mouse, in vivo; oral administration to mice; as free base
Text: Moreover, the above compounds have shown a low toxicity which makes them useful in therapy. […] Evaluation was made according to the method by Reed-Muench as modified by Pizzi (Human & Biology, 22(3), 151-190, 1950) by oral administration to mice.

[4] = brewer's yeast test, rat, oral, as free base
[5] = Carrageenin test, rat, oral, dose of 5 mg/kg, as free base

SMILES | inhibition in vivo at 5 mg/kg ([1]; Rattus norvegicus, po) | ED50 [2, 4] | ED50 ([2]; Rattus norvegicus, po) | inhibition in vivo at 5 mg/kg [1, 5] | LD50 [3]
CC(=O)Oc1ccccc1C(=O)O [Acetylsalycilic acid, acetylsalicylic acid, reference compound] | 23.2% | 73 mg/kg |  |  | 
O=C(OCCN1CCN(c2cccc(C(F)(F)F)c2)CC1)c1ccccc1Nc1ccnc2cc(C(F)(F)F)ccc12 [Antrafenine, reference compound] | 3.6% |  | 43 mg/kg |  | 
O=C(OCCN1CCCC1)c1ccccc1Nc1ccnc2cc(Cl)ccc12 [Example 1, 2-Pyrrolidinylethyl 2-(7-chloro-4-quinolyl)aminobenzoate] |  | 38 mg/kg |  | 35.6% | 2000 mg/kg
O=C(OCCN1CCCC1)c1ccccc1Nc1ccnc2cc(C(F)(F)F)ccc12 [Example 2, 2-Pyrrolidinylethyl 2-(7-trifluoromethyl-4-quinolyl)aminobenzoate] |  | 2.9 mg/kg |  | 38% | 630 mg/kg
O=C(OCCN1CCCCC1)c1ccccc1Nc1ccnc2cc(Cl)ccc12 [Example 3, 2-Piperidinylethyl-2-(7-chloro-4-quinolyl)aminobenzoate] |  | 67 mg/kg |  | 23.1% | > 2000 mg/kg
O=C(OCCN1CCCCC1)c1ccccc1Nc1ccnc2cc(C(F)(F)F)ccc12 [Example 4, 2-Piperidinylethyl 2-(7-trifluoromethyl-4-quinolyl)aminobenzoate] |  | 3 mg/kg |  | 23.2% | 635 mg/kg
O=C(OCCN1CCCCCC1)c1ccccc1Nc1ccnc2cc(Cl)ccc12 [Example 5, 2-Homopiperidinylethyl 2-(7-chloro-4-quinolyl)aminobenzoate] |  | 5.4 mg/kg |  | 17.3% | 
O=C(OCCN1CCCCCC1)c1ccccc1Nc1ccnc2cc(C(F)(F)F)ccc12 [Example 6, 2-Homopiperidinylethyl 2-(7-trifluoromethyl-4-quinolyl)aminobenzoate] |  | 7 mg/kg |  | 27.9% | 
O=C(OCCOCCN1CCCC1)c1ccccc1Nc1ccnc2cc(Cl)ccc12 [Example 7, 2-(2-Pyrrolidineethoxy)ethyl 2-(7-chloro-4-quinolyl)aminobenzoate] |  | 18.5 mg/kg |  | 5.1% | 
O=C(OCCOCCN1CCCC1)c1ccccc1Nc1ccnc2cc(C(F)(F)F)ccc12 [Example 8, 2-(2-Pyrrolidineethoxy)ethyl 2-(7-trifluoromethyl-4-quinolyl)aminobenzoate] |  | 14.7 mg/kg |  | 26.2% | 
O=C(OCCOCCN1CCCCC1)c1ccccc1Nc1ccnc2cc(Cl)ccc12 [Example 9] |  | 21.7 mg/kg |  | 33.2% | 
O=C(OCCOCCN1CCCCCC1)c1ccccc1Nc1ccnc2cc(Cl)ccc12 [Example 11, 2-(2-Homopiperidineethoxy)ethyl 2-(7-chloro-4-quinolyl)aminobenzoate] |  | 13.3 mg/kg |  | 21.2% | 
O=C(OCCOCCN1CCCCCC1)c1ccccc1Nc1ccnc2cc(C(F)(F)F)ccc12 [Example 12, 2-(2-Homopiperidineethoxy)ethyl 2-(7-trifluoromethyl-4-quinolyl)aminobenzoate] |  | 6.6 mg/kg |  | 28.8% | 
O=C(OCC1CCCCO1)c1ccccc1Nc1ccnc2cc(Cl)ccc12 (stereo not shown) [Example 14, 2-Tetrahydropyranylmethyl 2-(7-chloro-4-quinolyl)aminobenzoate] |  | 22 mg/kg |  | 19.5% | 
O=C(OCC1CCCCO1)c1ccccc1Nc1ccnc2cc(C(F)(F)F)ccc12 (stereo not shown) [Example 15, 2-Tetrahydropyranylmethyl 2-(7-trifluoromethyl-4-quinolyl)aminobenzoate] |  | 9.3 mg/kg |  | 26.1% | 
O=C(OCOCc1ccccc1)c1ccccc1Nc1ccnc2cc(Cl)ccc12 [Example 16, Benzyloxymethyl 2-(7-chloro-4-quinolyl)aminobenzoate] |  | 6.3 mg/kg |  | 27.7% | > 8000 mg/kg
O=C(OCOCc1ccccc1)c1ccccc1Nc1ccnc2cc(C(F)(F)F)ccc12 [Example 17, Benzyloxymethyl 2-(7-trifluoromethyl-4-quinolyl)aminobenzoate] |  | 64.5 mg/kg |  | 30.5% | 
O=C(OCOC(=O)c1ccccc1Nc1ccnc2cc(Cl)ccc12)c1ccccc1 [Example 18, Benzoyloxymethyl 2-(7-chloro-4-quinolyl)aminobenzoate] |  | 82.5 mg/kg |  | 31% | 
O=C(OCOC(=O)c1ccccc1Nc1ccnc2cc(C(F)(F)F)ccc12)c1ccccc1 [Example 19, Benzoyloxymethyl 2-(7-trifluoromethyl-4-quinolyl)aminobenzoate] |  | 3.8 mg/kg |  | 30.5% | 
O=C(OC1OC(=O)c2ccccc21)c1ccccc1Nc1ccnc2cc(Cl)ccc12 (stereo not shown) [Example 20, 1(3H)-isobenzofuranone-3-yl 2-(7-chloro-4-quinolyl)aminobenzoate] |  | 71 mg/kg |  | 26.2% | 
O=C(OC1OC(=O)c2ccccc21)c1ccccc1Nc1ccnc2cc(C(F)(F)F)ccc12 (stereo not shown) [Example 21, 1(3H)-isobenzofuranone-3-yl 2-(7-trifluoromethyl-4-quinolyl)aminobenzoate] |  | 26 mg/kg |  | 38.4% | 
O=C(OCC(O)CO)c1ccccc1Nc1ccnc2c(C(F)(F)F)cccc12 (stereo not shown) [Floctafenine, reference compound] |  | 2.2 mg/kg |  | 21.6% | 
O=C(OCC(O)CO)c1ccccc1Nc1ccnc2cc(Cl)ccc12 (stereo not shown) [Glafenine, reference compound] | 25.6% |  | 26.5 mg/kg |  | 2100 mg/kg
